{"source": "patent US20260234124A1", "about": "“Substituted Pyrazolyl-Pyridinyl Compounds as Ligand Directed Degraders of IRAK3” (Celgene Corporation, priority 2022, published 2026)", "key": {"[1]": {"target": "T1, IRAK3-ePL (Homo sapiens, UniProt Q9Y616)", "T1 construct": "expressed in transfected cells; host or cells: 293T CRBN OE/GSPT1 G575N KI cells, lentiviral transduction, puromycin selection", "test": "IRAK3-ePL overexpressing degradation assay", "type": "cell-based", "details": "IRAK3-ePL Lenti-X 293T CRBN/GSPT1 G575N cells, overnight incubation, top dose 10 μM", "experimental": "Example B1. IRAK3-ePL Overexpressing Degradation Assay\nStable cell lines were generated by the following protocol. 3×10^5 Lenti-X 293T cells (Clonetech) were plated in 0.8 mL of media in a 12-well plate and incubated overnight at 37° C./5% CO2. Packaging plasmid (0.4 μg, pMD), envelope plasmid (0.4 μg, pSP), and lentiviral transfer IRAK3-ePL plasmid (0.8 μg, IRAK3 sequence NM_007199.3) were mixed in 0.1 mL of Opti-MEM and incubated for 5 min. Simultaneously, 2.4 μL of Lipofectamine 2000 (Invitrogen) was added to 0.1 mL of Opti-MEM (Gibco) and incubated for 5 min. The plasmid DNA and lipofectamine were combined and the mixture was allowed to incubate for 20 min. DNA:Lipofectamine Opti-MEM mixtures were then added to previously plated cells dropwise and the cells were incubated for ~16 h at 37° C./5% CO2. Following incubation, the media was removed and 1.2 mL of fresh media was added per well. Lenti-X 293T cells were incubated for ~30 h at 37° C./5% CO2. […] Following incubation, media was removed from the Lenti-X 293T wells and passed through a […]. Part of the viral supernatant was used to transduce cells and the rest was stored at −80° C. Viruses were then added individually (0.5 mL virus) to each well of the 293T^CRBN OE/GSPT1 G575N KI cells, followed by addition of polybrene (10 mg/mL Millipore) to each well at a final concentration of 5.0 μg/mL. Cells were incubated for ~24 h at 37° C./5% CO2. After aspirating media off plates, cells were washed with DPBS, trypsinized and plated in a 10 cm dish in 15 mL of media and 1 μg/mL puromycin. Following incubation of cells for ~72 h at 37° C./5% CO2, media was aspirated off plates, and cells were washed with DPBS and trypsinized. The cells were plated in a 15 cm dish in 40 mL of media with 1.0 μg/mL Puromycin (Gibco) and incubated for ~72 h at 37° C./5% CO2. Following incubation, media was removed and cells were washed with DPBS and trypsinized. The majority of cells were resuspended in Invitrogen freezing media and stored away (~6-8×10^6 cells/vial).\nIRAK3-ePL cellular dose response curve degradation assays were performed by the following protocol. Compounds to be tested were dispensed into a white 384-well tissue-culture treated plate using an acoustic liquid handler. Dilutions were prepared based on a 25 μL assay volume in duplicate 10 point 3-fold serial dilutions starting with a 10 μM dose. Negative control wells were included, which only contain 0.2% DMSO to calculate 100% signal. Positive control wells containing 30 μM Ataluren (luciferase inhibitor) were included to calculate the background signal level. All wells were backfilled to a final DMSO concentration of 0.2% to ensure DMSO uniformity across wells. IRAK3-ePL expressing cells (IRAK3-ePL Lenti-X 293T^CRBN/GSPT1 G575N) were washed, trypsinized, counted, and resuspended in fresh DMEM (Gibco) to give a cell concentration of 200,000 cells/mL. 25 μL of cells (5,000 cells/well) were dispensed into the wells of the 384-well plate prespotted with compounds in the previous step and incubated overnight at 37° C./5% CO2. Following incubation, the 384-well plate was taken out of the incubator and left at room temperature for 30 min. InCELL hunter reagent was prepared according to manufacturer's instructions (EA reagent, lysis buffer, and substrate reagent in a 1:1:4 ratio, Cat #96-0002, DiscoverX), which was added to the 384-well plate 25 μL per well. Following the incubation of the plate for 1 h at room temperature, the luminescence signal was read using a ViewLux plate reader. Data was processed and analyzed in ActivityBase software. In short, the average luminescence values of the positive control wells were subtracted from the rest of the wells for background correction, and all luminescence values were normalized to the DMSO control wells. The average value of the DMSO control wells was set to equal 100% of the relative IRAK3-ePL protein levels. […]"}, "[2]": {"target": "T2, IRAK3 (Homo sapiens, UniProt Q9Y616)", "T2 sequence (Q9Y616 1-596)": "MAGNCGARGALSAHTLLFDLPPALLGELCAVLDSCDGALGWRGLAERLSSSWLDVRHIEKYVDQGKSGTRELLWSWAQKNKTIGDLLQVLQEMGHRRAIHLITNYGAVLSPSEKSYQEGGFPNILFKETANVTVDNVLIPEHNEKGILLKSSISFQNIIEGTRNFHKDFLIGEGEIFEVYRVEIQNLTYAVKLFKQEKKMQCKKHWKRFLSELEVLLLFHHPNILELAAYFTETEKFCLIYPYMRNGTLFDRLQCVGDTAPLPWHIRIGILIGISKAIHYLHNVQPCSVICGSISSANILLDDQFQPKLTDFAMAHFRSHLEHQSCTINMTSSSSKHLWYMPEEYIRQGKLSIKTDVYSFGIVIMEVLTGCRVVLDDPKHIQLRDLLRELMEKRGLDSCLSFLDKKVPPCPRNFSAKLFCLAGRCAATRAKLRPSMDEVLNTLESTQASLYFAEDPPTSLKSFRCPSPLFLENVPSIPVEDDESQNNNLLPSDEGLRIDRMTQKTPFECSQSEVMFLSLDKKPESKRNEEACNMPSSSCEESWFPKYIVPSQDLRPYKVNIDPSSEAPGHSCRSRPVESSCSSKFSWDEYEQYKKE", "test": "IRAK endogenous HTRF degradation assay (Total-IRAK3 HTRF kit)", "type": "cell-based", "design": "IRAK Endogenous HTRF Degradation Assay; endogenous in cells", "details": "endogenous IRAK3, overnight incubation; % Dmax = 100 − Ymin", "experimental": "Example B2. IRAK Endogenous HTRF Degradation Assay\nCells (~50k) were plated in Cisbio 96-well low volume white plates (Cisbio: cat #66PL96005). Compounds were dissolved in DMSO and a 3-fold serial dilution was performed using a TECAN D300E. Cells were incubated with the compound overnight. Total-IRAK3 HTRF kit from Cisbio was used for degradation analysis (Cisbio: 63ADK101PEH). Cryptate and D2 antibodies were diluted in Detection buffer as per manufacturers recommendation. Then 2 μL of each solution was added to 16 μL lysate. Buffer control (lysis buffer detection buffer), Cryptate control (lysis buffer+cryptate antibody+detection buffer), and Negative control (lysis buffer+cryptate antibody+D2 antibody) were made as per manufacturers recommendation. Post incubation with antibodies the HTRF signal was measured using a Perkin Elmer Envision reader and the HTRF signal was calculated using formula: (Emission at 665 nm/Emission at 615 nm)*10,000. All HTRF values were normalized to the average value of DMSO. The average value of the DMSO control wells were set to equal 100% of the relative IRAK3 protein levels. Normalized luminescence values were plotted on a graph as a function of compound concentration. Compound concentration was plotted on the x-axis and the corresponding normalized IRAK3 protein levels on the y-axis. The EC50 value (the half-maximum effective concentration) of a compound for the degradation of the IRAK3 was calculated using a four-parameter logistic model (sigmoidal dose-response model) (FIT=(A+{(B−A)/1+[(C/x)D]})) where C is the inflection point (EC50), D is the […], and A and B are the low and high limits of the fit, respectively). The Ymin was calculated by determining the lowest percentage of target protein remaining following compound treatment. Dmax was calculated from Ymin (% Dmax=100−Ymin).\nUsing these assays, IC50, Dmax, EC50, and DC50 values of the following compounds were determined. Dmax is defined as the maximum percent degradation achieved and DC50 is the concentration at which 50% degradation is achieved."}}}
{"compound": "Cc1ncsc1-c1ccc(CNC(=O)[C@@H]2C[C@@H](O)CN2C(=O)[C@@H](NC(=O)COCCOCCOCCOCCOCCN2CCC(n3cc(-c4cnc(N)c(O[C@H](C)c5c(Cl)ccc(F)c5Cl)c4)cn3)CC2)C(C)(C)C)cc1", "note": "[Compound 5, (2S,4R)-1-((S)-20-(4-(4-(6-amino-5-((R)-1-(2,6-dichloro-3-fluorophenyl)ethoxy)pyridin-3-yl)-1H-pyrazol-1-yl)piperidin-1-yl)-2-(tert-butyl)-4-oxo-6,9,12,15,18-pentaoxa-3-azaicosanoyl)-4-hydroxy-N-(4-(4-methylthiazol-5-yl)benzyl)pyrrolidine-2-carboxamide]", "values": [{"measurement": "Dmax", "setting": "[1]; HEK-293T, maximum percentage loss of target protein", "value": 23, "unit": "%"}, {"measurement": "DC50", "setting": "[1]; read-out: IRAK3 ePL degradation EC50", "value": "> 10", "unit": "µM"}, {"measurement": "Dmax", "setting": "[2]", "value": 34, "unit": "%"}]}
